# Laboratory results as given in patent US11548870B2, “Compounds useful as inhibitors of helios protein” (Bristol-Myers Squibb Company, priority 2019, dated 2023).
# Experiments:
# Ikaros = molecular target: T1, Ikaros (Homo sapiens, UniProt Q13422); experiment: Helios Cellular Degradation Assay, Ikaros readout (flow cytometry, Ikaros-Alexa488 antibody staining, 72 h); assay type: cell-based; details: Jurkat cells, 72 h incubation, flow cytometry; for Dmax: Jurkat, read-out: Ikaros Dmax
# T1 construct: fluorescently labelled antibodies against Helios and Ikaros; endogenous in cells; host or cells: Jurkat cells
# T1 sequence (Q96SW2 whole entry partner): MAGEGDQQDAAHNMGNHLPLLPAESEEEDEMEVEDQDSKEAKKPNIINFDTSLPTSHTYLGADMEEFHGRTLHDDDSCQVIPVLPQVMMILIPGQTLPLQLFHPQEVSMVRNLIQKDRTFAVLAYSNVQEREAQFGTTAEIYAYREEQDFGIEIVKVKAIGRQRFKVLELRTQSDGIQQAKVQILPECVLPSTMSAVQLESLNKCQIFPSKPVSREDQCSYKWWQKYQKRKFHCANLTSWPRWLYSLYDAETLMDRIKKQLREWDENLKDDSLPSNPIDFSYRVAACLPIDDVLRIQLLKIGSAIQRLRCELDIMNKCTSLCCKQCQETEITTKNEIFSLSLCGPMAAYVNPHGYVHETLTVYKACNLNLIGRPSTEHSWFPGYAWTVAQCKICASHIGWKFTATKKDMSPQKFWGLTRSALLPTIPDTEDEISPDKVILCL
# T1 sequence (Q16531 whole entry partner): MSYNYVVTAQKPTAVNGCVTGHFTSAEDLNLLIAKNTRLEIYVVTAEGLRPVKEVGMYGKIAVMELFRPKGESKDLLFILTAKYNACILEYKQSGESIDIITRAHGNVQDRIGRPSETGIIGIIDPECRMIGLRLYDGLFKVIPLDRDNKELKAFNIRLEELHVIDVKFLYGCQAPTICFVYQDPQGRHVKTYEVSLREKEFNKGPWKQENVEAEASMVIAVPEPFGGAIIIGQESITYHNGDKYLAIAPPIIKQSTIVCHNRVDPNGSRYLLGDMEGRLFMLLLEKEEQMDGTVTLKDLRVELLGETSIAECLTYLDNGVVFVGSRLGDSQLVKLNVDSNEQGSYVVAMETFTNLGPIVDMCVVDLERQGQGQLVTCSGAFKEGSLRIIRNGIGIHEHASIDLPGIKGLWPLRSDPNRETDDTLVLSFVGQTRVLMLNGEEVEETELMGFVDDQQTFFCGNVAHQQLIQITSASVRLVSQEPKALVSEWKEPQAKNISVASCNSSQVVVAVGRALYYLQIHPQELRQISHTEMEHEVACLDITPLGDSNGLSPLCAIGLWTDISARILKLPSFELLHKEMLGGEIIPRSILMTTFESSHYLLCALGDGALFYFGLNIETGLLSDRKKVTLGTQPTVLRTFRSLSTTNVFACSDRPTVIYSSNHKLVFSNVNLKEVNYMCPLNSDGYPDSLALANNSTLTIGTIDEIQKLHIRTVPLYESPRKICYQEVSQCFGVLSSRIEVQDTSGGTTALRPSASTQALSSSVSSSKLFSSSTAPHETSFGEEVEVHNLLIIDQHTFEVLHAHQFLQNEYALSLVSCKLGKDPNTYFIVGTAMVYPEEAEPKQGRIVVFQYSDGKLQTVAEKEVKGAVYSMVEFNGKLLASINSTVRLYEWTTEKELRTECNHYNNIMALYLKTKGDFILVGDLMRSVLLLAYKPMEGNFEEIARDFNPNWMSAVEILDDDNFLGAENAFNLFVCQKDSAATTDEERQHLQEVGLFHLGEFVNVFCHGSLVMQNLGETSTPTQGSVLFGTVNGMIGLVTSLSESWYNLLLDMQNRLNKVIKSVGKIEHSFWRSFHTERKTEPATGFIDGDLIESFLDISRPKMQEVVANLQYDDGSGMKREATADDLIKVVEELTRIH
# T1 sequence (Q13422 whole entry): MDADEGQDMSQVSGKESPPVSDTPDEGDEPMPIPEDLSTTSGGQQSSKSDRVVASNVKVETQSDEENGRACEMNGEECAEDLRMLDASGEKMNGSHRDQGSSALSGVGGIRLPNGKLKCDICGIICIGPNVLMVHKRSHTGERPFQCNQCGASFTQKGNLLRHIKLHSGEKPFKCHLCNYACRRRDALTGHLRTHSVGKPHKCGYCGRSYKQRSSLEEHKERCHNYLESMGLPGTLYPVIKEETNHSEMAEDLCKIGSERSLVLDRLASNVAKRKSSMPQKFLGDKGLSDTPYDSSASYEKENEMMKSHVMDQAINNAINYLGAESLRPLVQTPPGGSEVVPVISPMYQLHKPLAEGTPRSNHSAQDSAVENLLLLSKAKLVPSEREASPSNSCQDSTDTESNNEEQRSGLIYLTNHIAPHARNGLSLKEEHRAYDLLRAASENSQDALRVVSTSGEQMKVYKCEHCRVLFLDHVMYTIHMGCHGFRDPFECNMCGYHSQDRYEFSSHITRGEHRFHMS
# Outline: (§1)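 Jurkat cells (80,000/well, RPMI+10% FBS) were exposed to compound for 72 h at 37 °C, then fixed, permeabilized and co-stained for 1 h with Ikaros-Alexa488 and Helios-PE antibodies. Intracellular protein levels were read by flow cytometry.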
# Helios = molecular target: T2, Helios (Homo sapiens, UniProt Q96SW2+Q9UKS7); experiment: Helios Cellular Degradation Assay (flow cytometry, Helios-PE antibody staining, 72 h); assay type: cell-based; details: Jurkat cells, 72 h incubation, flow cytometry; for Dmax: Jurkat, read-out: Helios Dmax
# T2 construct: fluorescently labelled antibodies against Helios and Ikaros; endogenous in cells; host or cells: Jurkat cells
# T2 sequence (Q9UKS7 whole entry): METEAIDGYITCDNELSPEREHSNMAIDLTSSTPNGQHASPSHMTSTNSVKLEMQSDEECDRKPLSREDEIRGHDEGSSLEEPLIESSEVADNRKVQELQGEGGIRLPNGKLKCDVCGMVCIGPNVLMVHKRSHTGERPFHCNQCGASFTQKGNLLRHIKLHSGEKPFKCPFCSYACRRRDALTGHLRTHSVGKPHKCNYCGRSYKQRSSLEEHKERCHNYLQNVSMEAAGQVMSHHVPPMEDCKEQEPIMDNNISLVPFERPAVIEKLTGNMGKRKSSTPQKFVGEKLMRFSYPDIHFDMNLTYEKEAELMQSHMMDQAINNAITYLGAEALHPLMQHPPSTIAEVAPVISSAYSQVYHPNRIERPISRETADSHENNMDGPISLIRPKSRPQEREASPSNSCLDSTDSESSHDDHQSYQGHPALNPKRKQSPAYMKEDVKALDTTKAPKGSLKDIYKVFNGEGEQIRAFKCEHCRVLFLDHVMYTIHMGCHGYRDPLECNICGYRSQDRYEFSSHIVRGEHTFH
# T2 sequence (Q96SW2 whole entry): as the sequence (Q96SW2 whole entry partner) above
# T2 sequence (Q16531 whole entry partner): as the sequence (Q16531 whole entry partner) above
# Outline: as §1
smiles,measurement,setting,value
"CC(NCc1ccnc(-c2ccc3c(c2)CN(C2CCC(=O)NC2=O)C3=O)c1)c1ccccc1 (stereo not drawn) [Example 55, 3-(1-oxo-5-(4-(((1-phenylethyl)amino)methyl)pyridin-2-yl)isoindolin-2-yl) piperidine-2,6-dione]",DC50,Ikaros,> 10000 nM
same,Dmax,Ikaros,10%
same,DC50,Helios,9 nM
same,Dmax,Helios,91%
"Cc1ccccc1CNCc1ccnc(-c2ccc3c(c2)CN(C2CCC(=O)NC2=O)C3=O)c1 (stereo not drawn) [Example 56, 3-(5-(4-(((2-methylbenzyl)amino)methyl)pyridin-2-yl)-1-oxoisoindolin-2-yl)piperidine-2,6-dione]",DC50,Ikaros,> 10000 nM
same,Dmax,Ikaros,18%
same,DC50,Helios,13 nM
same,Dmax,Helios,88%
"Cc1cccc(CNCc2ccnc(-c3ccc4c(c3)CN(C3CCC(=O)NC3=O)C4=O)c2)c1 (stereo not drawn) [Example 57, 3-(5-(4-(((3-methylbenzyl)amino)methyl)pyridin-2-yl)-1-oxoisoindolin-2-yl)piperidine-2,6-dione]",DC50,Ikaros,> 10000 nM
same,Dmax,Ikaros,0%
same,DC50,Helios,> 10000 nM
same,Dmax,Helios,32%
"Cc1ccc(CNCc2ccnc(-c3ccc4c(c3)CN(C3CCC(=O)NC3=O)C4=O)c2)cc1 (stereo not drawn) [Example 58, 3-(5-(4-(((4-methylbenzyl)amino)methyl)pyridin-2-yl)-1-oxoisoindolin-2-yl)piperidine-2,6-dione]",DC50,Ikaros,> 10000 nM
same,Dmax,Ikaros,22%
same,DC50,Helios,9 nM
same,Dmax,Helios,88%
"CN(Cc1ccnc(-c2ccc3c(c2)CN(C2CCC(=O)NC2=O)C3=O)c1)CC1CCCCC1 (stereo not drawn) [Example 59, 3-(5-(4-(((cyclohexylmethyl)(methyl)amino)methyl)pyridin-2-yl)-1-oxoisoindolin-2-yl) piperidine-2,6-dione]",DC50,Ikaros,> 10000 nM
same,Dmax,Ikaros,20%
same,DC50,Helios,82 nM
same,Dmax,Helios,79%
"O=C1CCC(N2Cc3cc(-c4cc(CN5CCC6CCCC65)ccn4)ccc3C2=O)C(=O)N1 (stereo not drawn) [Example 60, 3-(5-(4-((hexahydrocyclopenta[b]pyrrol-1(2H)-yl)methyl)pyridin-2-yl)-1-oxoisoindolin-2-yl) piperidine-2,6-dione]",DC50,Ikaros,> 10000 nM
same,Dmax,Ikaros,19%
same,DC50,Helios,548 nM
same,Dmax,Helios,63%
"CCCCNCc1ccnc(-c2ccc3c(c2)CN(C2CCC(=O)NC2=O)C3=O)c1 (stereo not drawn) [Example 61, 3-(5-(4-((butylamino)methyl)pyridin-2-yl)-1-oxoisoindolin-2-yl)piperidine-2,6-dione]",DC50,Ikaros,> 10000 nM
same,Dmax,Ikaros,5%
same,DC50,Helios,12 nM
same,Dmax,Helios,83%
"CCCNCc1ccnc(-c2ccc3c(c2)CN(C2CCC(=O)NC2=O)C3=O)c1 (stereo not drawn) [Example 62, 3-(1-oxo-5-(4-((propylamino)methyl)pyridin-2-yl)isoindolin-2-yl)piperidine-2,6-dione]",DC50,Ikaros,> 10000 nM
same,Dmax,Ikaros,5%
same,DC50,Helios,45 nM
same,Dmax,Helios,80%
"O=C1CCC(N2Cc3cc(-c4cc(CNCCc5ccccc5)ccn4)ccc3C2=O)C(=O)N1 (stereo not drawn) [Example 63, 3-(1-oxo-5-(4-((phenethylamino)methyl)pyridin-2-yl)isoindolin-2-yl)piperidine-2,6-dione]",DC50,Ikaros,> 10000 nM
same,Dmax,Ikaros,13%
same,DC50,Helios,14 nM
same,Dmax,Helios,80%
"O=C1CCC(N2Cc3cc(-c4cc(CNCC5CC5)ccn4)ccc3C2=O)C(=O)N1 (stereo not drawn) [Example 64, 3-(5-(4-(((cyclopropylmethyl)amino)methyl)pyridin-2-yl)-1-oxoisoindolin-2-yl)piperidine-2,6-dione]",DC50,Ikaros,> 10000 nM
same,Dmax,Ikaros,1%
same,DC50,Helios,36 nM
same,Dmax,Helios,73%
"CC(C)(C)CNCc1ccnc(-c2ccc3c(c2)CN(C2CCC(=O)NC2=O)C3=O)c1 (stereo not drawn) [Example 65, 3-(5-(4-((neopentylamino)methyl)pyridin-2-yl)-1-oxoisoindolin-2-yl)piperidine-2,6-dione]",DC50,Ikaros,> 10000 nM
same,Dmax,Ikaros,7%
same,DC50,Helios,55 nM
same,Dmax,Helios,70%
"O=C1CCC(N2Cc3cc(-c4cc(CNCC5CCCO5)ccn4)ccc3C2=O)C(=O)N1 (stereo not drawn) [Example 66, 3-(1-oxo-5-(4-((((tetrahydrofuran-2-yl)methyl)amino)methyl)pyridin-2-yl)isoindolin-2-yl)piperidine-2,6-dione]",DC50,Ikaros,> 10000 nM
same,Dmax,Ikaros,7%
same,DC50,Helios,> 10000 nM
same,Dmax,Helios,26%
"COc1ccc(CNCc2ccnc(-c3ccc4c(c3)CN(C3CCC(=O)NC3=O)C4=O)c2)cc1 (stereo not drawn) [Example 67, 3-(5-(4-(((4-methoxybenzyl)amino)methyl)pyridin-2-yl)-1-oxoisoindolin-2-yl)piperidine-2,6-dione]",DC50,Ikaros,> 10000 nM
same,Dmax,Ikaros,6%
same,DC50,Helios,> 10000 nM
same,Dmax,Helios,41%
"COCCNCc1ccnc(-c2ccc3c(c2)CN(C2CCC(=O)NC2=O)C3=O)c1 (stereo not drawn) [Example 68, 3-(5-(4-(((2-methoxyethyl)amino)methyl)pyridin-2-yl)-1-oxoisoindolin-2-yl)piperidine-2,6-dione]",DC50,Ikaros,> 10000 nM
same,Dmax,Ikaros,15%
same,DC50,Helios,192 nM
same,Dmax,Helios,71%
"C[C@H]1CCCN1Cc1ccnc(-c2ccc3c(c2)CN(C2CCC(=O)NC2=O)C3=O)c1 (stereo partly drawn) [Example 69, 3-(5-(4-(((S)-2-methylpyrrolidin-1-yl)methyl)pyridin-2-yl)-1-oxoisoindolin-2-yl)piperidine-2,6-dione]",DC50,Ikaros,> 10000 nM
same,Dmax,Ikaros,0%
same,DC50,Helios,783 nM
same,Dmax,Helios,57%
"C[C@@H]1CCN(Cc2ccnc(-c3ccc4c(c3)CN(C3CCC(=O)NC3=O)C4=O)c2)C1 (stereo partly drawn) [Example 70, 3-(5-(4-(((R)-3-methylpyrrolidin-1-yl)methyl)pyridin-2-yl)-1-oxoisoindolin-2-yl)piperidine-2,6-dione]",DC50,Ikaros,> 10000 nM
same,Dmax,Ikaros,10%
same,DC50,Helios,19 nM
same,Dmax,Helios,79%
"C[C@@H]1CCCCN1Cc1ccnc(-c2ccc3c(c2)CN(C2CCC(=O)NC2=O)C3=O)c1 (stereo partly drawn) [Example 71, 3-(5-(4-(((R)-2-methylpiperidin-1-yl)methyl)pyridin-2-yl)-1-oxoisoindolin-2-yl)piperidine-2,6-dione]",DC50,Ikaros,> 10000 nM
same,Dmax,Ikaros,8%
same,DC50,Helios,> 10000 nM
same,Dmax,Helios,17%
"C[C@H]1CCN(Cc2ccnc(-c3ccc4c(c3)CN(C3CCC(=O)NC3=O)C4=O)c2)C1 (stereo partly drawn) [Example 72, 3-(5-(4-(((S)-3-methylpyrrolidin-1-yl)methyl)pyridin-2-yl)-1-oxoisoindolin-2-yl) piperidine-2,6-dione]",DC50,Ikaros,> 10000 nM
same,Dmax,Ikaros,13%
same,DC50,Helios,13 nM
same,Dmax,Helios,90%
"C[C@H]1CCCN(Cc2ccnc(-c3ccc4c(c3)CN(C3CCC(=O)NC3=O)C4=O)c2)C1 (stereo partly drawn) [Example 73, 3-(5-(4-(((S)-3-methylpiperidin-1-yl)methyl)pyridin-2-yl)-1-oxoisoindolin-2-yl)piperidine-2,6-dione]",DC50,Ikaros,> 10000 nM
same,Dmax,Ikaros,13%
same,DC50,Helios,45 nM
same,Dmax,Helios,62%
"C[C@H]1CCCCN1Cc1ccnc(-c2ccc3c(c2)CN(C2CCC(=O)NC2=O)C3=O)c1 (stereo partly drawn) [Example 74, 3-(5-(4-(((S)-2-methylpiperidin-1-yl)methyl)pyridin-2-yl)-1-oxoisoindolin-2-yl)piperidine-2,6-dione]",DC50,Ikaros,> 10000 nM
same,Dmax,Ikaros,16%
same,DC50,Helios,2500 nM
same,Dmax,Helios,53%
"C[C@@H]1CCCN(Cc2ccnc(-c3ccc4c(c3)CN(C3CCC(=O)NC3=O)C4=O)c2)C1 (stereo partly drawn) [Example 75, 3-(5-(4-(((R)-3-methylpiperidin-1-yl)methyl)pyridin-2-yl)-1-oxoisoindolin-2-yl)piperidine-2,6-dione]",DC50,Ikaros,> 10000 nM
same,Dmax,Ikaros,10%
same,DC50,Helios,14 nM
same,Dmax,Helios,94%
